The source of these data is ChEMBL document CHEMBL1139991, “[1,3]Diazaheterofused isoindolol derivatives displaying anxiolytic-like effects on mice” (2007).

Assay [1] relates to Mus musculus. Put plainly: Anxiolytic effect in Albino ICR mouse assessed as number of entries in open arms of elevated plus-maze test at 15 mg/kg, ip. Particulars: route intraperitoneal. Type of assay: functional.
Assay [2] deals with Mus musculus. The assay is described as follows: Anxiolytic effect in Albino ICR mouse assessed as time spent on open arms of elevated plus-maze test at 15 mg/ kg, ip. Type of assay: functional. Particulars: route intraperitoneal.

The structures appear in SMILES notation.

Take `CSc1ccc(CC2(O)c3ccccc3C3=NCCN32)cc1` (configuration not stated): the figures for the Activity in assay [1] and in assay [2] were 36.3% and 47.8%, respectively.

Turning to `CSc1ccc(CC2(O)c3ccccc3C3=NCCCN32)cc1` (configuration not stated), the results for the Activity in assay [1] and in assay [2] were 66% and 73.8%, respectively.

Turning to `C[S+]([O-])c1ccc(CC2(O)c3ccccc3C3=NCCCN32)cc1` (configuration not stated), the values for the Activity in assay [1] and in assay [2] were 27.6% and 16.3%, respectively.

Regarding `C[S+]([O-])c1ccc(CC2(O)c3ccccc3C3=NCCN32)cc1` (configuration not stated), the Activity in assay [1] is 25.3%; in assay [2] it was 44%.

Turning to `CS(=O)(=O)c1ccc(CC2(O)c3ccccc3C3=NCCN32)cc1` (configuration not stated), the Activity in assay [1] stood at 27.3%; in assay [2], 44%.

`COc1ccc(CC2(O)c3ccccc3C3=NCCCCN32)cc1` (configuration not stated): the Activity in assay [1] was -24.4%; in assay [2], -9%.

Regarding `OC1(Cc2ccc(F)cc2)c2ccccc2C2=NCCN21` (configuration not stated), the Activity in assay [1] amounted to 5.5%; in assay [2], 22.9%.

As for `OC1(Cc2ccc(F)cc2)c2ccccc2C2=NCCCN21` (configuration not stated), the Activity in assay [1] worked out at 24.7%; in assay [2], 44.7%.

On to `O=[N+]([O-])c1ccc(CC2(O)c3ccccc3C3=NCCCN32)cc1` (configuration not stated), for which the Activity in assay [1] was determined as 44.2%; in assay [2] it was 59%.

On to `OC1(Cc2ccc(Cl)cc2)c2ccccc2C2=NCCN21` (configuration not stated), for which the Activity stood at 41.9% in assay [1] and 62.6% in assay [2].

Take `OC1(Cc2ccc(Cl)cc2)c2ccccc2C2=NCCCN21` (configuration not stated): the Activity in assay [1] is reported as 47.4%; in assay [2], 62.6%.

Regarding `OC1(Cc2ccc(F)cc2)c2ccccc2C2=NCCCCN21` (configuration not stated), the figures for the Activity in assay [1] and in assay [2] were 36.3% and 33.5%, respectively.

Regarding `OC1(Cc2ccc(Cl)cc2)c2ccccc2C2=NCCCCN21` (configuration not stated), the Activity is recorded as 41% in assay [1] and 42.7% in assay [2].

As for `CS(=O)(=O)c1ccc(CC2(O)c3ccccc3C3=NCCCN32)cc1` (configuration not stated), the Activity in assay [1] is reported as -7.3%; in assay [2] it was 13.9%.

On to `O=[N+]([O-])c1ccc(CC2(O)c3ccccc3C3=NCCN32)cc1` (configuration not stated), for which the Activity in assay [1] is on record as 33.1%; in assay [2] it was 36.1%.

Consider `COc1cc(CC2(O)c3ccccc3C3=NCCCN32)cc(OC)c1OC` (configuration not stated), for which the Activity in assay [1] is 46.8%; in assay [2], 44.2%.

Turning to `OC1(Cc2ccc3c(c2)OCO3)c2ccccc2C2=NCCCN21` (configuration not stated), the Activity was found to be 45.9% in assay [1] and 48.7% in assay [2].

In the case of `COc1ccc(CC2(O)c3ccccc3C3=NCCN32)cc1` (configuration not stated), the Activity in assay [1] turned out to be 34.6%; in assay [2], 48.9%.

Regarding `OC1(Cc2ccc3c(c2)OCO3)c2ccccc2C2=NCCN21` (configuration not stated), the Activity in assay [1] was 44.8%; in assay [2], 51.3%.

Consider `COc1ccc(CC2(O)c3ccccc3C3=NCCCN32)cc1` (configuration not stated), for which the Activity came to 60.2% in assay [1] and 51.8% in assay [2].

`COc1cc(CC2(O)c3ccccc3C3=NCCN32)cc(OC)c1OC` (configuration not stated): the Activity is on record as -16% in assay [1] and -7.9% in assay [2].
